Columns and labels:
Type in all cases: in vivo
[1] = tested on: Euschistus heros (Neotropical Brown Stink Bug); assay: Euschistus heros (neotropical brown stink bug) on soybean leaves, spray; details: 120 h, N2 nymphs, 5 days after infestation, read-out: effect in at least one of the two categories (mortality or growth inhibition)
Experimental: Euschistus heros (Neotropical Brown Stink Bug)
Soybean leaves on agar in 24-well microtiter plates were sprayed with aqueous test solutions prepared from 10,000 ppm DMSO stock solutions. After drying the leaves were infested with N2 nymphs. The samples were assessed for mortality and growth inhibition in comparison to untreated samples 5 days after infestation.

[2] = tested on: Spodoptera littoralis (Egyptian Cotton Leaf Worm); assay: Spodoptera littoralis (Egyptian cotton leaf worm) on cotton leaf discs; details: foliar, 72 h, L1 larvae, 3 days after infestation
Experimental: Spodoptera littoralis (Egyptian Cotton Leaf Worm)
Cotton leaf discs were placed onto agar in 24-well microtiter plates and sprayed with aqueous test solutions prepared from 10,000 ppm DMSO stock solutions. After drying the leaf discs were infested with five L1 larvae. The samples were assessed for mortality, anti-feeding effect, and growth inhibition in comparison to untreated samples 3 days after infestation. Control of Spodoptera littoralis by a test sample is given when at least one of the categories mortality, anti-feedant effect, and growth inhibition is higher than the untreated sample.

[3] = tested on: Tetranychus urticae (Two-Spotted Spider Mite); assay: whole plant or invertebrate; details: 192 h
Experimental: Tetranychus urticae (Two-Spotted Spider Mite): Feeding/Contact Activity
Bean leaf discs on agar in 24-well microtiter plates were sprayed with aqueous test solutions prepared from 10,000 ppm DMSO stock solutions. After drying the leaf discs were infested with a mite population of mixed ages. The samples were assessed for mortality on mixed population (mobile stages) 8 days after infestation.

[4] = tested on: Myzus persicae (Green Peach Aphid); assay: Myzus persicae (green peach aphid) feeding/contact activity; details: 144 h, mixed ages, 6 days after infestation
Experimental: Myzus persicae (Green Peach Aphid): Feeding/Contact Activity
Sunflower leaf discs were placed onto agar in a 24-well microtiter plate and sprayed with aqueous test solutions prepared from 10,000 ppm DMSO stock solutions. After drying, the leaf discs were infested with an aphid population of mixed ages. The samples were assessed for mortality 6 days after infestation.

[5] = tested on: Thrips tabaci (Onion thrips); assay: Thrips tabaci (onion thrips) feeding/contact activity; details: 144 h, mixed ages, 6 days after infestation
Experimental: Thrips tabaci (Onion thrips) Feeding/Contact Activity
Sunflower leaf discs were placed on agar in 24-well microtiter plates and sprayed with aqueous test solutions prepared from 10,000 ppm DMSO stock solutions. After drying the leaf discs were infested with a thrips population of mixed ages. The samples were assessed for mortality 6 days after infestation.

[6] = tested on: Plutella xylostella (Diamond Back Moth); assay: Plutella xylostella (diamond back moth) feeding/contact activity; details: 120 h, L2 larvae, artificial diet, 5 days after infestation
Experimental: Plutella xylostella (Diamond Back Moth): Feeding/Contact Activity
24-well microtiter plates with artificial diet were treated with aqueous test solutions prepared from 10,000 ppm DMSO stock solutions by pipetting. After drying, the plates were infested with L2 larvae (10 to 15 per well). The samples were assessed for mortality 5 days after infestation.

[7] = tested on: Diabrotica balteata (Corn Root Worm); assay: Diabrotica balteata (corn root worm) on maize sprouts, spray; details: 96 h, L2 larvae, 4 days after infestation, read-out: effect in at least one of the two categories (mortality or growth inhibition)
Experimental: Diabrotica balteata (Corn Root Worm)
Maize sprouts placed onto an agar layer in 24-well microtiter plates were treated with aqueous test solutions prepared from 10,000 ppm DMSO stock solutions by spraying. After drying, the plates were infested with L2 larvae (6 to 10 per well). The samples were assessed for mortality and growth inhibition in comparison to untreated samples 4 days after infestation.

CCOC1=NOC(NC(=O)c2ccc(C3=NS[C@](c4cc(Cl)cc(Cl)c4)(C(F)(F)F)C3)cc2C)C1 (stereo partly drawn) [Compound A01, 4-[(5R)-5-(3,5-dichlorophenyl)-5-(trifluoromethyl)-4H-isothiazol-3-yl]-N-(3-ethoxy-4,5-dihydroisoxazol-5-yl)-2-methyl-benzamide]
≥ 80%: percent effect (mortality or growth inhibition) at 200 ppm [1] | percent control (mortality, anti-feedant effect or growth inhibition) at 200 ppm [2] | mortality at 200 ppm [3] | mortality at 200 ppm [4] | mortality at 200 ppm [5] | mortality at 200 ppm [6] | percent effect (mortality or growth inhibition) at 200 ppm [7]

CCOC1=NOC(NC(=O)c2ccc(N3CCC(c4cc(Cl)cc(Cl)c4)(C(F)(F)F)C3)cc2C)C1 (stereo not shown) [Compound A02, 4-[3-(3,5-dichlorophenyl)-3-(trifluoromethyl)pyrrolidin-1-yl]-N-(3-ethoxy-4,5-dihydroisoxazol-5-yl)-2-methyl-benzamide]
≥ 80%: percent effect (mortality or growth inhibition) at 200 ppm [1] | percent control (mortality, anti-feedant effect or growth inhibition) at 200 ppm [2] | mortality at 200 ppm [3] | mortality at 200 ppm [5] | mortality at 200 ppm [6] | percent effect (mortality or growth inhibition) at 200 ppm [7]
